The target in one series is T1, CYP2A6 (Homo sapiens, UniProt P11509).
T1 construct: expressed in transfected cells
T1 sequence (P11509 1-494): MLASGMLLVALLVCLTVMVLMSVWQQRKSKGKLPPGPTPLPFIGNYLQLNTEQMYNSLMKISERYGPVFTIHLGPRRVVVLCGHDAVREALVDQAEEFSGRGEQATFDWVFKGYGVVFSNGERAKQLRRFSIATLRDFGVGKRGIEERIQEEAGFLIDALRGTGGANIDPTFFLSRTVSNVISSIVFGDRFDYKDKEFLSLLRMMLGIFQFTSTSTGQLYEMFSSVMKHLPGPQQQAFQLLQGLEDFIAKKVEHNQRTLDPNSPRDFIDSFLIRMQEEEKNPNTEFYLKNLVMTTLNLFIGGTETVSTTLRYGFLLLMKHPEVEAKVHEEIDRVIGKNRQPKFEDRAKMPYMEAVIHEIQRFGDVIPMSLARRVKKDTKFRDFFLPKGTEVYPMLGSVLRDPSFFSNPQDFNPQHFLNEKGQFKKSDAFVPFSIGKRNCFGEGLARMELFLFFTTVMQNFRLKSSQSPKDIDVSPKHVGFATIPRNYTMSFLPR
The series is described as follows: Kinetic analysis, coumarin 7-hydroxylase activity in Hepc/2A6L.9. It is filed as cell-based. The text has this:
The product purchased from Extrasynthese was used as the standard substance for 7-hydroxycoumarin.

The test system of series [1] is HepG2. The series is described as follows: LDH leakage test, acetaminophen in HepG2. It is filed as cell-based, human. As for the experimental part:
(§1) Two plates each with the same design as in the MTT assay were prepared (for determination of LDH activity in the culture supernatant and for determination of LDH activity in the culture supernatant+LDH activity in the cells). After incubating for 3 days in a CO2 incubator, 10 μl of the supernatant was taken from each well of one plate (for determination of LDH activity in the supernatant), transferred to another 96-well plate, and 40 μl of distilled water was further added. On the other hand, 10 μl of 10% Triton X100 (Wako Junyaku K. K. ) was added to each well of another plate (for determination of LDH activity in the culture supernatant+LDH activity in the cells), followed by shaking and incubation at 37° C. for 45 minutes. After centrifuging at 1500 rpm for 5 minutes, 10 μl of the supernatant was taken from each well, transferred to another 96-well plate, and 40 μl of distilled water was further added. The LDH activity of each well in these plates was measured using Cytotox 96 Non-Radioactive Cytotoxicity Assay Kit (Promega). Multiscanning MS-UV was used for the measurement of absorbance. A ratio of the LDH activity in the supernatant to (the LDH activity in the supernatant+ the LDH activity in the cells) was made an LDH leakage rate.
(In general: LDH in the medium is a marker of cell lysis.)

In series [2] the test system is CYP2E1-expressing cells (Hepc/2E1.3-8). The series is described as follows: LDH leakage test, acetaminophen in CYP2E1-expressing cells. The series is classed as cell-based, human. As for the experimental part: as §1
Series [3] has the same test system. The series can be described thus: MTT assay, cytotoxicity of acetaminophen in CYP2E1-expressing cells. The series is classed as cell-based, human. As to conditions: 4 days incubation (FIG. 1). As for the experimental part:
(§2) HepG2 or CYP2E1-expressing cells (Hepc/2E1.3-8) (4×10^5 cells/ml) were incubated with acetaminophen (Wako Junyaku K. K. ) diluted to a given concentration in DMEM medium supplemented with 5% FCS in a CO2 incubator. In the test to terminate glutathione conjugation, L-Buthionine [S,R]-Sulfoximine (BSO, Sigma) was added to the medium in a final concentration of 100 μM. After incubation for 4 days, 20 μl of a solution of 3-(4,5-dimethyl-2-thiazolyl)-2,5-diphenyl-2H-tetrazolium bromide (MTT, Sigma) adjusted to 1 mg/ml with PBS (Flow) was added to each well followed by incubation at 37° C. for 3 hours. Next, 100 μl of 0.01N HCl solution containing 10% SDS was added to each well. After incubation at 37° C. overnight, absorbance was measured at 590 nm.
(Formazan colour is commonly taken as a measure of viable cells.)

The test system of series [4] is HepG2. The series is described as follows: MTT assay, cytotoxicity of acetaminophen in HepG2. It is filed as cell-based, human. As to conditions: HepG2, without BSO, 4 days incubation (FIG. 1). As for the experimental part:
as §2

In the next series the target is CYP3A4 (Homo sapiens, UniProt P08684). The series can be described thus: Kinetic analysis, testosterone 6β-hydroxylase activity in Hepc/3A4.5. As to the method: Subsequently, testosterone previously diluted to 100 μM was added in 500 μl/well.
Sequence of CYP3A4 (P08684 whole entry): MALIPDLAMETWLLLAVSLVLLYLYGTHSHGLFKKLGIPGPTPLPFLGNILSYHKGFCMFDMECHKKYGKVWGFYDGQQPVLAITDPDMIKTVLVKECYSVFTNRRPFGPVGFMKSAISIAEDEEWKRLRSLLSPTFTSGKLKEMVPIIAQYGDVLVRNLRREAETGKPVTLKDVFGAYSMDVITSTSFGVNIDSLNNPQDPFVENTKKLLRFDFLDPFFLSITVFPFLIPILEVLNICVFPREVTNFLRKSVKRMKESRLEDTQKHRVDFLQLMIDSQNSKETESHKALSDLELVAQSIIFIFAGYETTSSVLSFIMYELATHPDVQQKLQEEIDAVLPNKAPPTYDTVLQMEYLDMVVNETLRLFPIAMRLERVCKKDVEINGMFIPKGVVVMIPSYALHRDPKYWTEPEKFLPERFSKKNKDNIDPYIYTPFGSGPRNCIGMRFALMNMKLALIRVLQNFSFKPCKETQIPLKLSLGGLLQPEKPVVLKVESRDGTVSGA
A program was made up to set for a linear gradient of 0-100% solution B in 0-20 minutes, 100% solution B in 20-30 minutes and since then 100% solution.

A further series deals with T2, CYP2B6 (Homo sapiens, UniProt P20813).
T2 construct: expressed in transfected cells
T2 sequence (P20813 1-491): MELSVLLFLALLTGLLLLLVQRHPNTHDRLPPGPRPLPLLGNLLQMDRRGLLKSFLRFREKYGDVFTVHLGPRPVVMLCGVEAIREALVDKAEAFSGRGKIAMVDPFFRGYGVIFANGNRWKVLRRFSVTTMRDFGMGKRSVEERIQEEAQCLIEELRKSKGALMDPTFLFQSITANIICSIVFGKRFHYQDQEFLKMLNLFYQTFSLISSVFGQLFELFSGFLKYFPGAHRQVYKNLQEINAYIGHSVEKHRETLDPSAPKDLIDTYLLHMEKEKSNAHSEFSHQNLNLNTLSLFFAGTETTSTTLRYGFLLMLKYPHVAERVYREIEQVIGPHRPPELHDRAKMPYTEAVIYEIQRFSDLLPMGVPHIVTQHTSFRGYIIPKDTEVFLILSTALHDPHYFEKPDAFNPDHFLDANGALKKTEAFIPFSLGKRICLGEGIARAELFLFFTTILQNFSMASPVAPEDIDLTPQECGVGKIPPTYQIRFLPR
The series is described as follows: Kinetic analysis, 7-ethoxycoumarin O-deethylase activity in Hepc/2B6.68. It is filed as cell-based. As to the method:
The reaction solution was diluted to 10-fold with 0.1M Tris-HCl (pH 7.4) and fluorescent intensity was measured at an excited wavelength of 390 nm and a fluorescence wavelength of 440 nm, using a spectrofluorometer (Hitatchi Spectrofluorometer F-2000) to quantify 7-hydroxycoumarin formed. The product purchased from Extrasynthese was used as the standard substance for 7-hydroxycoumarin.

The next series concerns the target CYP2E1 (Homo sapiens, UniProt P05181). Particulars: Hepc/2E1.3-8 cells incubated 3 days with the substance; 500 μM p-nitrophenol (FIG. 7).
The subject of series [5] is HepG2. As to conditions: HepG2, 4 days incubation (printed FIG. 4).
Procedure: (§3) After incubation for 4 days, 20 μl of a MTT (Sigma) solution adjusted to 1 mg/ml with PBS (Flow) was added to each well followed by incubation at 37° C. for 3 hours. Next, 100 μl of 0.01N HCl solution containing 10% SDS was added to each well. After incubation at 37° C. overnight, absorbance was measured at 590 nm.
Two plates each with the same design as in the MTT assay were prepared (for determination of LDH activity in the culture supernatant and for determination of LDH activity in the culture supernatant+LDH activity in the cells). After incubating for 4 days in a CO2 incubator, 10 μl of the supernatant was taken from each well of one plate (for determination of LDH activity in the supernatant), transferred to another 96-well plate, and 40 μl of distilled water was further added. On the other hand, 10 μl of 10% Triton X100 was added to each well of another plate (for determination of LDH activity in the culture supernatant+LDH activity in the cells), followed by shaking and incubation at 37° C. for 45 minutes. After centrifuging at 1500 rpm for 5 minutes, 10 μl of the supernatant was taken from each well, transferred to another 96-well plate, and 40 μl of distilled water was further added. The LDH activity of each well in these plates was measured using Cytotox 96 Non-Radioactive Cytotoxicity Assay Kit (Promega). Multiscanning MS-UV was used for the measurement of absorbance. […]
The test system of series [6] is CYP2B6-expressing cells (Hepc/2B6.68). Particulars: Hepc/2B6.68, 4 days incubation (printed FIG. 5).
Procedure: as §3
For series [7] the test system is unchanged. As to conditions: Hepc/2B6.68, 4 days incubation; plateau above 2 mM.
Procedure: Two plates each with the same design as in the MTT assay were prepared (for determination of LDH activity in the culture supernatant and for determination of LDH activity in the culture supernatant+LDH activity in the cells). After incubating for 4 days in a CO2 incubator, 10 μl of the supernatant was taken from each well of one plate (for determination of LDH activity in the supernatant), transferred to another 96-well plate, and 40 μl of distilled water was further added. On the other hand, 10 μl of 10% Triton X100 was added to each well of another plate (for determination of LDH activity in the culture supernatant+LDH activity in the cells), followed by shaking and incubation at 37° C. for 45 minutes. After centrifuging at 1500 rpm for 5 minutes, 10 μl of the supernatant was taken from each well, transferred to another 96-well plate, and 40 μl of distilled water was further added. The LDH activity of each well in these plates was measured using Cytotox 96 Non-Radioactive Cytotoxicity Assay Kit (Promega). Multiscanning MS-UV was used for the measurement of absorbance. A ratio of the LDH activity in the supernatant to (the LDH activity in the supernatant + the LDH activity in the cells) was made an LDH leakage rate.
The test system of series [8] is CYP1A1-expressing cells (Hepc/1A1.4). The series is described as follows: MTT assay, cytotoxicity of benzanthracene in CYP1A1-expressing cells. Particulars: Hepc/1A1.4 compared with HepG2, 4 days incubation, concentration-dependent (FIG. 3). It is filed as cell-based, human.
Procedure: CYP1A1-expressing cells (Hepc/1A1.4) (4×10^5 cells/ml) were incubated with benzanthracene (Sigma) diluted to a given concentration in DMEM medium supplemented with 5% FCS in a CO2 incubator. After incubation for 4 days, 20 μl of a MTT (Sigma) solution adjusted to 1 mg/ml with PBS (Flow) was added to each well followed by incubation at 37° C. for 3 hours. Next, 100 μl of 0.01N HCl solution containing 10% SDS was added to each well. After incubation at 37° C. overnight, absorbance was measured at 590 nm.

The structures appear in SMILES notation.

Sequence of CYP2E1 (P05181 whole entry): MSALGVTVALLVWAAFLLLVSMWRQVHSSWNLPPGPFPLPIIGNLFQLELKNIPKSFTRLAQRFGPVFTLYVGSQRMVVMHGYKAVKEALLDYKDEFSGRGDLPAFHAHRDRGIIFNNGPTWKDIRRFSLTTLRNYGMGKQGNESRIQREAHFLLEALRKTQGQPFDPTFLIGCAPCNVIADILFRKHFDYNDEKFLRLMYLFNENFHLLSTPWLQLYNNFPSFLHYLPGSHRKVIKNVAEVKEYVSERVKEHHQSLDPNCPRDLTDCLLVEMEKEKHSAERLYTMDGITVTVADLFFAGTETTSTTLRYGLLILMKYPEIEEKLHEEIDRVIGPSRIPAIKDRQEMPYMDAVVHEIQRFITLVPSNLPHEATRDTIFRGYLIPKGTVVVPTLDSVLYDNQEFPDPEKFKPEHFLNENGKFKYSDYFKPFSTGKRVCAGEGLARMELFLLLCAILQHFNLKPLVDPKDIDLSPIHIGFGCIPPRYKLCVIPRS

As to `O=c1ccc2ccccc2o1` [Coumarin], the Vmax (as a rule, the top rate of the reaction or transport when substrate is in excess) on CYP2A6 (Lineweaver-Burk plot) was 412 pmol/min/mg. For the same compound, the Km (in general, the concentration of substrate that gives half-maximal velocity) on CYP2A6 (human, Hepc/2A6L.9 cells expressing CYP2A6, Lineweaver-Burk plot) turned out to be 11.1 µM.

On to `CC(=O)Nc1ccc(O)cc1` [Acetaminophen, acetaminophen], for which the “effect of the presence of BSO on LDH leakage” value with HepG2 [1] (HepG2 + 100 μM BSO (FIG. 2)) is given as “Any effect expected in the presence of BSO was not noted”. Moreover, the “leakage of LDH” value was “slight leakage of LDH” in the series with HepG2 [1] (HepG2, without BSO, 3 days incubation (FIG. 2)) and “slight leakage of LDH” in series [2] (Hepc/2E1.3-8, without BSO, 3 days incubation (FIG. 2)). Also, in series [2] (Hepc/2E1.3-8 + 100 μM BSO (glutathione exhausted), versus without BSO), the “enhancement of sensitivity to acetaminophen in the presence of BSO (LDH leakage)” value is “approximately 4 times”. Moreover, the “MTT activity in the presence of BSO” value in series [3] (Hepc/2E1.3-8 + 100 μM BSO) was “increased sensitivity to acetaminophen”. In addition, the MTT activity result is reported as “slight decrease of the MTT activity” in series [3] (Hepc/2E1.3-8, without BSO) and “slight decrease of the MTT activity” in the series with HepG2 [4].

In the case of `C[C@]12CC[C@H]3[C@@H](CCC4=CC(=O)CC[C@@]43C)[C@@H]1CC[C@@H]2O` [Testosterone], at CYP3A4 (Hepc/3A4.5, testosterone 6β-hydroxylase activity, Lineweaver-Burk plot), the maximal velocity (Vmax) stood at 71 pmol/min/mg. Also, the Km at CYP3A4 (human, Hepc/3A4.5 cells expressing CYP3A4) was found to be 96 µM.

Consider `CCOc1ccc2ccc(=O)oc2c1` [7-ethoxycoumarin], for which the Vmax on CYP2B6 (Lineweaver-Burk plot) stood at 80 pmol/min/mg. On CYP2B6 (human, Hepc/2B6.68 cells expressing CYP2B6, Lineweaver-Burk plot), the Michaelis-Menten constant (Km) is 81 µM.

As to `C[S+](C)[O-]` [DMSO, dimethylsulfoxide], the “CYP2E1 activity induction (p-nitrophenol hydroxylation, 4-nitrocatechol formed)” value on CYP2E1 is recorded as “the enzyme activity increases”.

In the case of `O=P1(N(CCCl)CCCl)NCCCO1` (stereo not shown) [Cyclophosphamide, cyclophosphamide], the cytotoxicity entry in the series on HepG2 [5] is given as “slightly cytotoxic”. Further, the MTT activity result in series [6] was “slight decrease of the MTT activity concentration-dependently”. The “leakage of LDH” value in [7] is reported as “concentration-dependently in the concentration up to 2 mM”.

Consider `c1ccc2cc3c(ccc4ccccc43)cc2c1` [benzanthracene], for which, in series [8], the “reduction in the MTT activity” value is listed as “more potent reduction in the MTT activity”.

As to `CCO` [ethanol], the “CYP2E1 activity induction (p-nitrophenol hydroxylation, 4-nitrocatechol formed)” value on CYP2E1 is on record as “the enzyme activity increases”.

For the origin of these results see patent US6756229B1, “Human cell line showing stable expression of cytochromes P450” (Takeda Chemical Industries, Ltd., priority 1999, dated 2004).
